Key:
[1] = HPLC analysis of interaction between Niclosamide and Cisplatin in vitro; format: physicochemical; conditions: ratios 1:1 and 1:10, 37° C.
Protocol: A simple explanation of Niclosamide's protection against CIHL is that it directly inactivates Cisplatin, similar to several otoprotectants in clinical trials (STS, ebselen, etc.). To investigate any possible interaction between Niclosamide and Cisplatin, we developed an HPLC method in vitro. The method may use the following: HPLC: Shimadzu Prominence-i LC-2030C, column: Agilent Eclipse Plus C18, PN-959961-902, 5% ACN, 95% water: 0-2 min; continuous increase of ACN to 95%: 2-12 min; hold at 95% ACN: 12-17 min; continuous decrease of ACN to 5%: 17-20 min, flow rate: 1 mL/min; Temperature 37° C., run time: 20 min. Additional parts of the method may use a stock solution of 1 mg/ml prepared in suitable solvent and mixed to create a ratio of cisplatin and niclosamide at 1:1 and 1:10 in the final injecting solution, along with the pure cisplatin and niclosamide. […] Our in vitro results are consistent with its synergistic interaction with Cisplatin in RCC xenograft models and its protection against noise injury.

zebrafish neuromast HCs = assay: Zebrafish lateral-line neuromast hair cell protection against Cisplatin; format: in vivo, Danio rerio
Protocol: Danio rerio experimental larvae were obtained by pair mating of adult fish maintained at Creighton University by standard methods approved by the Institutional Animal Care and Use Committee. […] We used Tg(pou4f3:mGFP) expressing a membrane bound GFP in HCs. Experimental fish were maintained at 28.5° C. in E3 media (5 mM NaCl, 0.17 mM KCl, 0.33 mM CaCl2) and […], pH 7.2). Animals were cryoanaesthetized after drug treatment and prior to fixation. The neuromasts inspected, S03 and 01-2, were part of the cranial system and included the otic, middle, and opercular neuromasts.
Subsequently, animals were transferred to E3 water for 5 hours and fixed in 4% paraformaldehyde (PFA) overnight (26). Neuromast HCs were immunolabeled with anti-otoferlin (HCS-1, DSHB) and anti-GFP (NB100-1614, Novus Biologicals). These two markers were used to detect and count neuromast HCs to reduce the chances of missing some of the HCs after the treatment since we previously noticed that incubation with the compounds can affect GFP expression more difficult to detect under a fluorescence microscope. Otic, middle, and opercular neuromasts were identified, and HCs at S03 (supraorbital line neuromast) and 01-2 (Otic line neuromasts) were manually counted using a Zeiss AxioSkop 2 fluorescence microscope with a 40× oil objective. Compounds were then evaluated on efficiency and potency, with the top-rated compounds showing high protection at lower concentrations.

Nrf2 = assay: nrf2a morpholino knock-down zebrafish exposed to cisplatin and niclosamide; format: in vivo; conditions: non-injected and scrambled control zebrafish; 18.3 nM, cisplatin 300 μM
Protocol: Additionally to FIGS. 6A-6B, but not shown, 5 dpf zebrafish were incubated for 6 hours with vehicle, niclosamide (2 nM to 1.48 μM) and the nrf2 pathway activator […] (DEM) as a positive control, in order to evaluate the effect of niclosamide on ggcsh, a nrf2 downstream target. Ggcsh was previously validated as a Nrf2 downstream target in zebrafish. (Sheets, 2017). Following incubation, the total RNA was isolated from whole fish and processed to measure the induced expression of nrf2 downstream gene ggcsh. […] Additionally, Nrf2a morpholinos morphlinos were prepared, followed by incubation of the zebrafish morphants with cisplatin and/or niclosamide. Zebrafish eggs were injected with 4.5 ng of scrambled morpholino or nrf2a morpholino (5′-[…] SEQ NO: 1). At 3 dpf non-injected and morphant animals were exposed to vehicle, cisplatin (300 μM), cisplatin+niclosamide 18.3 nM or niclosamide alone for 6 hours. Following 1-hour recovery, animals were fixed and processed for immunohistochemistry. Nrf2a KD was confirmed by analyzing expression of Glutathione S-transferase P1 (gstp1), a downstream target, due to lack of proper antibody to detect Nrf2 protein in zebrafish.

O=C(Nc1ccc([N+](=O)[O-])cc1Cl)c1cc(Cl)ccc1O [Niclosamide, 5-chloro-N-(2-chloro-4-nitrophenyl)-2-hydroxy-benzamide]
chemical interaction with Cisplatin (third HPLC peak) [1]: no interaction between Niclosamide and Cisplatin | highest level of protection of neuromast HCs (zebrafish neuromast HCs; 0.002 μM, lowest concentration tested, normalized to Cisplatin only (0%) and DMSO (100%)): ~50% | hair cell loss (fluorescent staining of neuromasts) (zebrafish neuromast HCs; 0.002-13.3 μM, Cisplatin-treated zebrafish): reduce hair cell loss | Cisplatin damage in zebrafish HCs at S03 and O1-2 (zebrafish neuromast HCs; pretreated with 0.002 μM): significantly reduced Cisplatin damage | hair cell number after cotreatment with cisplatin (Nrf2): significantly higher hair cell number
